# Measured values: PMC6019134, “1,2,6-Thiadiazinones as Novel Narrow Spectrum Calcium/Calmodulin-Dependent Protein Kinase Kinase 2 (CaMKK2) Inhibitors” (Molecules : A Journal of Synthetic Chemistry and Natural …, 2018)
# Experiments:
# Assay in all cases: DSF thermal shift, kinase panel
# Format in all cases: binding
# Settings in all cases: 10 μM compound
# GSG2A = molecular target: T1, GSG2A (Homo sapiens, UniProt Q8TF76)
# T1 construct: purchased in-house (home-made panel, SGC-style construct names)
# T1 sequence (Q8TF76 1-798): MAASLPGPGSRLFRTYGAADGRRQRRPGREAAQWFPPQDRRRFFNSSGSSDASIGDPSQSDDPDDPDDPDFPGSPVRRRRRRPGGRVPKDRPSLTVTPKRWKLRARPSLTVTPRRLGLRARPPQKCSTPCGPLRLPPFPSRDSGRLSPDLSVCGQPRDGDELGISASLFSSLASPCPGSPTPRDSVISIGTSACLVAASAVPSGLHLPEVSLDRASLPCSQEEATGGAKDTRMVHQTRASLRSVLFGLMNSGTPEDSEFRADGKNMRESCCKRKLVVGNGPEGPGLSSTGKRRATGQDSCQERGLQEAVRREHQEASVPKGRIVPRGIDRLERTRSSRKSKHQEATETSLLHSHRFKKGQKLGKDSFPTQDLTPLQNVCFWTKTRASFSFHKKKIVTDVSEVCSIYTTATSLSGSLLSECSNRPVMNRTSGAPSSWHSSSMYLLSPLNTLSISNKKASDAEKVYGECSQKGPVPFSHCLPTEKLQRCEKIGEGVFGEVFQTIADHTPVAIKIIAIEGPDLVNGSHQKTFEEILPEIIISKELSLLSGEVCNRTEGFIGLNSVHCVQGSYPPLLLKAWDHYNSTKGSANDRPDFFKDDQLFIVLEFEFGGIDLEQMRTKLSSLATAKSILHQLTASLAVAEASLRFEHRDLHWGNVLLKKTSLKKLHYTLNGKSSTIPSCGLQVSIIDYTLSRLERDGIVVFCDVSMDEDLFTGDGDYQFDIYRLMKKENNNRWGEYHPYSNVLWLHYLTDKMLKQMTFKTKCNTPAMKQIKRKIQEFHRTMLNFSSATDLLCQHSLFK
# Experimental: (§1) The corresponding dianilino-TDZs (1–5) were tested on a panel of 46 protein kinases representing the major kinome branches at a concentration of 10 μM using a Differential Scanning Fluorimetry (DSF). Only analogues 1–3 induced a significant (>2 °C) thermal shift when incubated with a subset of the proteins (Table 1).
# (§2) Kinase selectivity assay—A home-made kinase panel was generated for the following enzymes: AAK1, BMP2K, BMX, BRAF, CAMK1D, CAMK1G, CAMKK1, CAMKK2B, CDC42BPA, CDK2, CDKL1, CHEK2, CLK1, CSNK1G1, CSNK1G3, CSNK2A1, DYRK1A, DYRK2A, EPHA2, GAK, GSG2, MAPK1, MAP2K7, MAPK14B, MAPK3, PHKG2, PIM1, PLK1, PKMYT1, PRPF4B, RPS6KA1A, RPS6KA5A, RPS6KA6A, SLK, SRPK1, SRPK2, STK3, STK6, STK10, STK17A, STK24, STK38L, TRIB2, TTK, VRK1 and VRK2. Proteins were produced in E. coli, purified in a Ni-chelate column, followed by overnight digestion using TEV protease (made in house with an N-terminal 6xHis tag) and dialysis to remove imidazole. To clear samples of uncleaved proteins and the TEV protease, samples were loaded on new Ni-chelate columns. The flow through was collected, concentrated and loaded to a HiLoad Superdex 200 16/600 column (GE Healthcare, Chicago, IL, USA) for final polishing and buffer exchange.
# (§3) Starting from 100 µM protein stocks, our kinase panel enzymes were diluted to 1 µM in buffer 100 mM K2HPO4 pH 7.5 containing 150 mM NaCl, 10% glycerol and 5X dye (Applied Biosystems catalogue 4461806). The protein/dye mixture was transferred to a 384-well PCR microplate having 20 µL per well. Compounds in DMSO at 10 mM concentration were added in 20 nL volume, using a liquid handling device setup with a pin head, to make 10 µM compound concentration in the assay plate.
# (§4) Protein thermal shift data was measured in a qPCR instrument (Applied Biosystems QuantStudio 6) programmed to equilibrate the plate at 25 °C for 5 min followed by ramping the temperature to 95 °C at a rate of 0.05 °C/s. Data was processed using Protein Thermal shift software (Applied Biosystems) by fitting experimental curves to a Boltzmann function to calculate differential thermal shifts (dTm) referenced to protein/dye in 0.2% DMSO.
# AAK1 = molecular target: T2, AAK1 (Homo sapiens, UniProt Q2M2I8)
# T2 construct: purchased in-house (home-made panel, SGC-style construct names)
# Experimental: as §1, §2, §3, §4
# CSNK1G1 = molecular target: T3, CSNK1G1 (Homo sapiens, UniProt Q9HCP0)
# T3 construct: purchased in-house (home-made panel, SGC-style construct names)
# Experimental: as §1, §2, §3, §4
# STK17AA = molecular target: T4, STK17AA (Homo sapiens, UniProt Q9UEE5)
# T4 construct: TEV-cleavable (cleaved yes); made in house; host or cells: E. coli
# T4 sequence (Q9UEE5 1-414): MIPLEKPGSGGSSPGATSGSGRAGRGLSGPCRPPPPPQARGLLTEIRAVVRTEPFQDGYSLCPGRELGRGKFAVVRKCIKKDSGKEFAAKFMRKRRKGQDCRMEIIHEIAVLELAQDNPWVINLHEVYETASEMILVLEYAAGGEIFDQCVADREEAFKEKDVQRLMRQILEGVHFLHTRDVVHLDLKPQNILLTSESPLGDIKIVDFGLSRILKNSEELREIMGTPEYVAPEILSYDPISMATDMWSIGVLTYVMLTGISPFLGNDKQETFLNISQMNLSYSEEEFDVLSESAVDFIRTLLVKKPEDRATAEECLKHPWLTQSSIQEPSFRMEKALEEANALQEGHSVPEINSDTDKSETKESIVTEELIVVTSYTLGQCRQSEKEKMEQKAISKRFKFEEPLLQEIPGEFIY
# Experimental: as §1, §2, §3, §4
# T2 sequence (Q2M2I8 whole entry): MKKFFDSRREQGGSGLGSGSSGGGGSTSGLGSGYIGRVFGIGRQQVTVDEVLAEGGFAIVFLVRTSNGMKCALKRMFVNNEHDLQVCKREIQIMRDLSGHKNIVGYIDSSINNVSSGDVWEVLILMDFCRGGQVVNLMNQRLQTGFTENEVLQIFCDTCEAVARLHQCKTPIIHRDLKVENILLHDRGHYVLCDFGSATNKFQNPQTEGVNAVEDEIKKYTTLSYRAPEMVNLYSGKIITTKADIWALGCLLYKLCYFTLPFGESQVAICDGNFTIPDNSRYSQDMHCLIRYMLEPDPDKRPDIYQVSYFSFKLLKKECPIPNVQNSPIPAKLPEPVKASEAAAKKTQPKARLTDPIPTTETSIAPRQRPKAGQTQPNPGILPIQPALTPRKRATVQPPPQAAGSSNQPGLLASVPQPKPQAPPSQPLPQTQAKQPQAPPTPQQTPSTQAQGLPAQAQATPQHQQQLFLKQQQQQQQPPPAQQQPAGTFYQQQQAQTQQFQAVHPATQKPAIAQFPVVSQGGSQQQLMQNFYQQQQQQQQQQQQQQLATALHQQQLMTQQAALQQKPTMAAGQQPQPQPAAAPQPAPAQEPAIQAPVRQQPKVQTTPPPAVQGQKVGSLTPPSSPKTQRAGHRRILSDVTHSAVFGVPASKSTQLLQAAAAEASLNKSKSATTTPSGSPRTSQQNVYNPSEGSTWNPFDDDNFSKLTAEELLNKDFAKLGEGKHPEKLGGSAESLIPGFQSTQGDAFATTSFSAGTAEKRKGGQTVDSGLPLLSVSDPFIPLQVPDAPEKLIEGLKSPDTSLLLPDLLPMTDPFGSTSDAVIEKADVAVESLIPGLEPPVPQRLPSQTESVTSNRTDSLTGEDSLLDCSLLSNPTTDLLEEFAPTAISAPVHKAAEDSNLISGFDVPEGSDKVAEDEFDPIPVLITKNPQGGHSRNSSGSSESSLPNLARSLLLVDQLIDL
# T3 sequence (Q9HCP0 whole entry): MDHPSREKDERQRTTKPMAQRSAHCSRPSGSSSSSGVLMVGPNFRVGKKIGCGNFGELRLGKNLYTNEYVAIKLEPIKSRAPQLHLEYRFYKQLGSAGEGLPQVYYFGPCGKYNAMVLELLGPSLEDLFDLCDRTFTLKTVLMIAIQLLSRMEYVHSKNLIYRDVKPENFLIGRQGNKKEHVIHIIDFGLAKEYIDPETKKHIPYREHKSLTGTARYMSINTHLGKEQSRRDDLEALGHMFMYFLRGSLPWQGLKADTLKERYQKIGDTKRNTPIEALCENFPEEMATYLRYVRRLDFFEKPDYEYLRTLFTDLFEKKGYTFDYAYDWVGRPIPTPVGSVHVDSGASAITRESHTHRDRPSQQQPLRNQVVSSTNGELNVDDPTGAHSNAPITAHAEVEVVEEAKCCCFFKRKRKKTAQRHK
SMILES,ΔTm at 10 µM (GSG2A),ΔTm at 10 µM (AAK1),ΔTm at 10 µM (CSNK1G1),ΔTm at 10 µM (STK17AA)
"CNC(=O)c1ccccc1Nc1nsnc(Nc2cccc(CS(C)(=O)=O)c2)c1=O [Compound 4, N-Methyl-2-([5-({3-[(methylsulfonyl)methyl]phenyl}amino)-4-oxo-4H-1,2,6-thiadiazin-3-yl]-amino}-benzamide]",0.4 °C,-0.4 °C,0.3 °C,-0.8 °C
"CNC(=O)c1ccccc1Nc1nsnc(Nc2ccc(N3CCOCC3)cc2)c1=O [Compound 5, N-Methyl-2-({5-[(4-morpholinophenyl)amino]-4-oxo-4H-1,2,6-thiadiazin-3-yl}amino)benzamide]",0.3 °C,-0.4 °C,0 °C,-0.8 °C
"Cc1ccc(Nc2nsnc(Nc3ccc(C(N)=O)cc3)c2=O)cc1O [Compound 2, 4-({5-[(3-Hydroxy-4-methylphenyl)amino]-4-oxo-4H-1,2,6-thiadiazin-3-yl}amino)benzamide]",1.3 °C,1.5 °C,-1 °C,2.2 °C
"Cc1ccc(Nc2nsnc(Nc3ccc4c(c3)CS(=O)(=O)C4)c2=O)cc1O [Compound 3, 3-[(2,2-Dioxido-1,3-dihydrobenzo[c]thiophen-5-yl)amino]-5-[(3-hydroxy-4-methylphenyl)amino]-4H-1,2,6-thiadiazin-4-one]",1.2 °C,0.6 °C,-0.7 °C,1.7 °C
"Cc1ccc(Nc2nsnc(Nc3cccc(C(N)=O)c3)c2=O)cc1O [Compound 1, 3-({5-[(3-Hydroxy-4-methylphenyl)amino]-4-oxo-4H-1,2,6-thiadiazin-3-yl}amino)benzamide]",0.6 °C,0.6 °C,-0.6 °C,-0.5 °C
